Patent publication US6737383B1, “Herbicidal oxadiazolidines” (priority 1999, dated 2004)

Key:
soybean = assay: Test B pre/postemergence soybean; format: in vivo, Glycine max
Summary of the method: (§1)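 Herbicidal effect was estimated by eye on a ten-point control scale after plants spent twelve to sixteen days in a greenhouse following soil or foliar treatment. Foliar sprays targeted plants at one to four leaves; all doses were formulated in a non-phytotoxic solvent with surfactant.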

pigweed = assay: Test B pre/postemergence pigweed; format: in vivo, Amaranthus retroflexus
Summary of the method: as §1

crabgrass = assay: Test B pre/postemergence crabgrass; format: in vivo, Digitaria sanguinalis
Summary of the method: as §1

wheat = assay: Test B pre/postemergence wheat; format: in vivo, Triticum aestivum; settings: for Plant response rating, Wheat: Rate 250 g/ha
Summary of the method: as §1

blackgrass = assay: Test B pre/postemergence blackgrass; format: in vivo, Alopecurus myosuroides
Summary of the method: as §1

velvetleaf = assay: Test B pre/postemergence velvetleaf; format: in vivo, Abutilon theophrasti; settings: for Plant response rating, Velvetleaf: Rate 250 g/ha
Summary of the method: as §1

rape = assay: Test B pre/postemergence rape; format: in vivo, Brassica napus
Summary of the method: as §1

purple nutsedge = assay: Test B pre/postemergence purple nutsedge; format: in vivo, Cyperus rotundus
Summary of the method: as §1

bedstraw = assay: Test B pre/postemergence bedstraw; format: in vivo, Galium aparine
Summary of the method: as §1

corn = assay: Test B pre/postemergence corn; format: in vivo, Zea mays
Summary of the method: as §1

smallflower flatsedge = assay: Test B flood test smallflower flatsedge; format: in vivo, Cyperus difformis
Summary of the method: (§2)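 Read-out is a visual response score from 0 (no effect) to 10 (complete control), assigned by comparison with untreated controls. Treatment was applied at the 2-leaf stage, and plants stayed in the greenhouse for twelve to sixteen days before scoring.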

duck salad = assay: Test B flood test duck salad; format: in vivo, Heteranthera limosa
Summary of the method: as §2

rice = assay: Test B flood test rice; format: in vivo, Oryza sativa
Summary of the method: as §2

surinam grass = assay: Test B pre/postemergence surinam grass; format: in vivo, Brachiaria decumbens
Summary of the method: as §1

sugar beet = assay: Test B pre/postemergence sugar beet; format: in vivo, Beta vulgaris; settings: for Plant response rating, Sugarbeets: Rate 250 g/ha
Summary of the method: as §1

wild oat = assay: Test B pre/postemergence wild oat; format: in vivo, Avena fatua; settings: for Plant response rating, Wild oats: Rate 250 g/ha
Summary of the method: as §1

[1] = Postemergence, Rate 62 g/ha, scale 0 to 10, 0 is no effect, 10 is complete control
[2] = Postemergence, Rate 125 g/ha, scale of 0 to 10 where 0 is no effect and 10 is complete control
[3] = Preemergence, Rate 62 g/ha, scale 0 to 10 (0 no effect, 10 complete control)
[4] = Preemergence, Rate 125 g/ha, scale 0 to 10 (0 no effect, 10 complete control)
[5] = Preemergence, Rate 250 g/ha, scale of 0 to 10 where 0 is no effect and 10 is complete control
[6] = Preemergence, Rate 500 g/ha, scale 0 (no effect) to 10 (complete control)
[7] = Rate 250 g/ha, Postemergence, scale 0 to 10, 0 is no effect, 10 is complete control
[8] = Rate 500 g/ha, Postemergence, scale 0 to 10, 0 no effect, 10 complete control
[9] = Postemergence, Rate 250 g/ha, scale 0 to 10, 0 no effect, 10 complete control
[10] = Preemergence, Rate 125 g/ha, 0 is no effect, 10 is complete control
[11] = Preemergence, scale of 0 to 10 where 0 is no effect and 10 is complete control
[12] = Postemergence, scale 0 to 10, 0 is no effect, 10 is complete control
[13] = Postemergence (flood test species), Rate 125 g/ha, scale of 0 to 10 where 0 is no effect and 10 is complete control
[14] = Rate 250 g/ha, Postemergence (flood test), scale 0 to 10, 0 is no effect, 10 is complete control
[15] = Rate 250 g/ha, headed Pre-emergence (flood test species), scale 0 to 10 (0 no effect, 10 complete control)
[16] = Rate 500 g/ha, headed Pre-emergence (flood test species), scale 0 to 10 (0 no effect, 10 complete control)
[17] = Rate 500 g/ha, listed under Postemergence (flood test species), scale 0 to 10, 0 no effect, 10 complete control
[18] = Rate 2000 g/ha, Pre-emergence (as headed), scale 0 to 10
[19] = Rate 1000 g/ha, Pre-emergence (as headed), scale 0 to 10

C=CCn1c(=O)on(C(=O)N(c2ccccc2)C(C)C)c1=O [Compound 93]
Soybean plant response rating (soybean; [1]): 4
Soybean plant response rating (soybean; [2]): 5
Soybean plant response rating (soybean; [3]): 0
Plant response rating, Soybean (soybean; [4]): 2
Plant response rating, Soybean (soybean; [5]): 7
Soybean plant response rating (soybean; [6]): 9
Plant response rating, Soybean (soybean; [7]): 5
Soybean plant response rating (soybean; [8]): 7
Redroot pigweed plant response rating (pigweed; [1]): 2
Redroot pigweed plant response rating (pigweed; [2]): 4
Redroot pigweed plant response rating (pigweed; [3]): 9
Plant response rating, Redroot pigweed (pigweed; [4]): 8
Plant response rating, Redroot pigweed (pigweed; [5]): 10
Redroot pigweed plant response rating (pigweed; [6]): 10
Plant response rating, Redroot pigweed (pigweed; [7]): 7
Redroot pigweed plant response rating (pigweed; [8]): 7
Crabgrass plant response rating (crabgrass; [1]): 7
Crabgrass plant response rating (crabgrass; [2]): 8
Crabgrass plant response rating (crabgrass; [9]): 9
Crabgrass plant response rating (crabgrass; [3]): 7
Plant response rating, Crabgrass (crabgrass; [4]): 9
Plant response rating, Crabgrass (crabgrass; [5]): 9
Crabgrass plant response rating (crabgrass; [6]): 10
Crabgrass plant response rating (crabgrass; [8]): 9
Wheat plant response rating (wheat; [1]): 0
Wheat plant response rating (wheat; [2]): 3
Wheat plant response rating (wheat; [3]): 3
Wheat plant response rating (0 to 10 scale) (wheat; [10]): 3
Plant response rating, Wheat (wheat; [11]): 6
Wheat plant response rating (wheat; [6]): 8
Plant response rating, Wheat (wheat; [12]): 4
Wheat plant response rating (wheat; [8]): 5
Blackgrass plant response rating (blackgrass; [1]): 7
Blackgrass plant response rating (blackgrass; [2]): 8
Blackgrass plant response rating (blackgrass; [9]): 8
Blackgrass plant response rating (blackgrass; [3]): 9
Plant response rating, Blackgrass (blackgrass; [4]): 10
Plant response rating, Blackgrass (blackgrass; [5]): 10
Blackgrass plant response rating (blackgrass; [6]): 10
Blackgrass plant response rating (blackgrass; [8]): 8
Velvetleaf plant response rating (velvetleaf; [1]): 0
Velvetleaf plant response rating (velvetleaf; [2]): 0
Velvetleaf plant response rating (velvetleaf; [3]): 5
Velvetleaf plant response rating (0 to 10 scale) (velvetleaf; [10]): 6
Plant response rating, Velvetleaf (velvetleaf; [11]): 6
Velvetleaf plant response rating (velvetleaf; [6]): 10
Plant response rating, Velvetleaf (velvetleaf; [12]): 0
Velvetleaf plant response rating (velvetleaf; [8]): 6
Rape plant response rating (rape; [1]): 2
Rape plant response rating (rape; [2]): 3
Rape plant response rating (rape; [9]): 4
Rape plant response rating (rape; [3]): 3
Plant response rating, Rape (rape; [4]): 7
Plant response rating, Rape (rape; [5]): 8
Rape plant response rating (rape; [6]): 10
Rape plant response rating (rape; [8]): 5
Nutsedge plant response rating (purple nutsedge; [1]): 0
Nutsedge plant response rating (purple nutsedge; [2]): 0
Nutsedge plant response rating (purple nutsedge; [9]): 0
Nutsedge plant response rating (purple nutsedge; [3]): 0
Plant response rating, Nutsedge (purple nutsedge; [4]): 0
Plant response rating, Nutsedge (purple nutsedge; [5]): 0
Nutsedge plant response rating (purple nutsedge; [8]): 3
Bedstraw plant response rating (bedstraw; [3]): 0
Plant response rating, Bedstraw (bedstraw; [4]): 0
Plant response rating, Bedstraw (bedstraw; [5]): 0
Bedstraw plant response rating (bedstraw; [6]): 3
Bedstraw plant response rating (bedstraw; [8]): 7
Corn plant response rating (corn; [1]): 3
Corn plant response rating (corn; [2]): 4
Corn plant response rating (corn; [9]): 5
Corn plant response rating (corn; [3]): 3
Plant response rating, Corn (corn; [4]): 7
Plant response rating, Corn (corn; [5]): 8
Corn plant response rating (corn; [6]): 9
Corn plant response rating (corn; [8]): 5
S. Flatsedge plant response rating (smallflower flatsedge; [13]): 0
S. Flatsedge plant response rating (smallflower flatsedge; [1]): 0
S. Flatsedge plant response rating (smallflower flatsedge; Pre-emergence, Rate 1000 g/ha, scale 0 to 10 (0 no effect, 10 complete control)): 0
Plant response rating, S. Flatsedge (smallflower flatsedge; [14]): 0
S. Flatsedge plant response rating (smallflower flatsedge; [15]): 0
Plant response rating, S. Flatsedge (smallflower flatsedge; [16]): 0
S. Flatsedge plant response rating (smallflower flatsedge; [17]): 6
S. Flatsedge plant response rating (smallflower flatsedge; [18]): 0
Ducksalad plant response rating (duck salad; [13]): 0
Ducksalad plant response rating (duck salad; [1]): 0
Ducksalad plant response rating (duck salad; [15]): 0
Plant response rating, Ducksalad (duck salad; [16]): 0
Ducksalad plant response rating (duck salad; [17]): 0
Ducksalad plant response rating (duck salad; [19]): 0
Ducksalad plant response rating (duck salad; [18]): 0
Ducksalad plant response rating (duck salad; flood test, listed under Postemergence, Rate 250 g/ha, scale 0 to 10, 0 no effect, 10 complete control): 0
Rice plant response rating (rice; [13]): 0
Rice plant response rating (rice; [1]): 0
Plant response rating, Rice (rice; [14]): 0
Rice plant response rating (rice; [15]): 0
Plant response rating, Rice (rice; [16]): 0
Rice plant response rating (rice; [17]): 4
Rice plant response rating (rice; [19]): 0
Rice plant response rating (rice; [18]): 0
B. signalgrass plant response rating (surinam grass; [1]): 3
B. signalgrass plant response rating (surinam grass; [9]): 8
Plant response rating, B. signalgrass (surinam grass; [4]): 7
B. signalgrass plant response rating (surinam grass; [6]): 8
B. signalgrass plant response rating (surinam grass; Rate 125 g/ha, Postemergence, scale 0 to 10, 0 no effect, 10 complete control): 5
B. signalgrass plant response rating (surinam grass; Rate 500 g/ha, Postemergence, scale of 0 to 10 where 0 is no effect and 10 is complete control): 9
Sugarbeets plant response rating (sugar beet; [1]): 2
Sugarbeets plant response rating (sugar beet; [2]): 3
Sugarbeets plant response rating (sugar beet; [3]): 6
Sugarbeets plant response rating (0 to 10 scale) (sugar beet; [10]): 7
Plant response rating, Sugarbeets (sugar beet; [11]): 8
Sugarbeets plant response rating (sugar beet; [6]): 9
Plant response rating, Sugarbeets (sugar beet; [12]): 3
Sugarbeets plant response rating (sugar beet; [8]): 5
Wild oats plant response rating (wild oat; [1]): 0
Wild oats plant response rating (wild oat; [2]): 0
Wild oats plant response rating (wild oat; [3]): 8
Wild oats plant response rating (0 to 10 scale) (wild oat; [10]): 8
Plant response rating, Wild oats (wild oat; [11]): 10
Wild oats plant response rating (wild oat; [6]): 10
Plant response rating, Wild oats (wild oat; [12]): 2
Wild oats plant response rating (wild oat; [8]): 5
